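Dose response: 5 concentrations. Exposure: 48 h. Format: 96-well plates. Endpoint: linear interpolation; highest concentration if not reached. TGI: concentration producing complete growth inhibition.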
What was measured:
Assay in all cases: DTP human tumour cell line panel, 48 h
HS 578T breast = system: HS 578T breast
NCI/ADR-RES ovarian = system: NCI/ADR-RES ovarian
SNB-75 CNS = system: SNB-75 CNS
NCI-H522 lung = system: NCI-H522 lung
IGROV1 ovarian = system: IGROV1 ovarian
CAKI-1 renal = system: CAKI-1 renal
A549 NSCLC = system: A549 NSCLC
HOP-92 NSCLC = system: HOP-92 NSCLC
K-562 leukemia = system: K-562 leukemia
DU-145 prostate = system: DU-145 prostate
OVCAR-8 ovarian = system: OVCAR-8 ovarian
HT29 colon = system: HT29 colon
MCF7 breast = system: MCF7 breast
786-0 renal = system: 786-0 renal
MALME-3M melanoma = system: MALME-3M melanoma
U251 CNS = system: U251 CNS
OVCAR-5 ovarian = system: OVCAR-5 ovarian
MDA-N = system: MDA-N
SK-MEL-28 melanoma = system: SK-MEL-28 melanoma
PC-3 prostate = system: PC-3 prostate
OVCAR-3 ovarian = system: OVCAR-3 ovarian
ACHN renal = system: ACHN renal
EKVX NSCLC = system: EKVX NSCLC
SR leukemia = system: SR leukemia
CCRF-CEM leukemia = system: CCRF-CEM leukemia
COLO 205 colon = system: COLO 205 colon
RXF 393 renal = system: RXF 393 renal
NCI-H23 lung = system: NCI-H23 lung
SW-620 colon = system: SW-620 colon
BT-549 breast = system: BT-549 breast
RPMI-8226 leukemia = system: RPMI-8226 leukemia
SNB-19 CNS = system: SNB-19 CNS
UACC-62 melanoma = system: UACC-62 melanoma
SF-539 CNS = system: SF-539 CNS
M14 melanoma = system: M14 melanoma
HCT-116 colon = system: HCT-116 colon
NCI-H226 lung = system: NCI-H226 lung
HOP-62 NSCLC = system: HOP-62 NSCLC
SK-OV-3 ovarian = system: SK-OV-3 ovarian
SF-268 CNS = system: SF-268 CNS
SF-295 CNS = system: SF-295 CNS
T-47D breast = system: T-47D breast
UO-31 renal = system: UO-31 renal
OVCAR-4 ovarian = system: OVCAR-4 ovarian
MDA-MB-231 breast = system: MDA-MB-231 breast
A498 renal = system: A498 renal
UACC-257 melanoma = system: UACC-257 melanoma
NCI-H460 lung = system: NCI-H460 lung
SN12C renal = system: SN12C renal
SK-MEL-5 melanoma = system: SK-MEL-5 melanoma
HCT-15 colon = system: HCT-15 colon
TK-10 renal = system: TK-10 renal
SK-MEL-2 melanoma = system: SK-MEL-2 melanoma
MDA-MB-435 = system: MDA-MB-435
LOX IMVI melanoma = system: LOX IMVI melanoma
KM12 colon = system: KM12 colon
MOLT-4 leukemia = system: MOLT-4 leukemia
HCC-2998 colon = system: HCC-2998 colon
HL-60(TB) leukemia = system: HL-60(TB) leukemia

Compound: Cn1c(=O)c2[nH]c(CCCCc3nc4c([nH]3)c(=O)n(C)c(=S)n4C)nc2n(C)c1=S
- TGI (HS 578T breast): > 100 µM
- TGI (NCI/ADR-RES ovarian): > 100 µM
- TGI (SNB-75 CNS): 53.1 µM
- TGI (NCI-H522 lung): > 100 µM
- TGI (IGROV1 ovarian): > 100 µM
- TGI (CAKI-1 renal): > 100 µM
- TGI (A549 NSCLC): > 100 µM
- TGI (HOP-92 NSCLC): > 100 µM
- TGI (K-562 leukemia): > 100 µM
- TGI (DU-145 prostate): > 100 µM
- TGI (OVCAR-8 ovarian): > 100 µM
- TGI (HT29 colon): > 100 µM
- TGI (MCF7 breast): > 100 µM
- TGI (786-0 renal): > 100 µM
- TGI (MALME-3M melanoma): > 100 µM
- TGI (U251 CNS): > 100 µM
- TGI (OVCAR-5 ovarian): > 100 µM
- TGI (MDA-N): > 100 µM
- TGI (SK-MEL-28 melanoma): > 100 µM
- TGI (PC-3 prostate): > 100 µM
- TGI (OVCAR-3 ovarian): > 100 µM
- TGI (ACHN renal): > 100 µM
- TGI (EKVX NSCLC): > 100 µM
- TGI (SR leukemia): > 100 µM
- TGI (CCRF-CEM leukemia): > 100 µM
- TGI (COLO 205 colon): > 100 µM
- TGI (RXF 393 renal): > 100 µM
- TGI (NCI-H23 lung): > 100 µM
- TGI (SW-620 colon): > 100 µM
- TGI (BT-549 breast): > 100 µM
- TGI (RPMI-8226 leukemia): > 100 µM
- TGI (SNB-19 CNS): > 100 µM
- TGI (UACC-62 melanoma): > 100 µM
- TGI (SF-539 CNS): > 100 µM
- TGI (M14 melanoma): > 100 µM
- TGI (HCT-116 colon): > 100 µM
- TGI (NCI-H226 lung): > 100 µM
- TGI (HOP-62 NSCLC): > 100 µM
- TGI (SK-OV-3 ovarian): > 100 µM
- TGI (SF-268 CNS): > 100 µM
- TGI (SF-295 CNS): > 100 µM
- TGI (T-47D breast): > 100 µM
- TGI (UO-31 renal): > 100 µM
- TGI (OVCAR-4 ovarian): > 100 µM
- TGI (MDA-MB-231 breast): > 100 µM
- TGI (A498 renal): > 100 µM
- TGI (UACC-257 melanoma): > 100 µM
- TGI (NCI-H460 lung): > 100 µM
- TGI (SN12C renal): > 100 µM
- TGI (SK-MEL-5 melanoma): > 100 µM
- TGI (HCT-15 colon): > 100 µM
- TGI (TK-10 renal): > 100 µM
- TGI (SK-MEL-2 melanoma): > 100 µM
- TGI (MDA-MB-435): > 100 µM
- TGI (LOX IMVI melanoma): > 100 µM
- TGI (KM12 colon): > 100 µM

Compound: CCOC(=O)c1ccc(Nc2nc3cc(C(F)(F)F)ccc3nc2C(=O)OCC)cc1
- TGI (HS 578T breast): > 100 µM
- TGI (NCI/ADR-RES ovarian): > 100 µM
- TGI (SNB-75 CNS): > 100 µM
- TGI (NCI-H522 lung): > 100 µM
- TGI (IGROV1 ovarian): > 100 µM
- TGI (CAKI-1 renal): 49.6 µM
- TGI (A549 NSCLC): > 100 µM
- TGI (HOP-92 NSCLC): > 100 µM
- TGI (K-562 leukemia): > 100 µM
- TGI (DU-145 prostate): > 100 µM
- TGI (OVCAR-8 ovarian): > 100 µM
- TGI (HT29 colon): > 100 µM
- TGI (MCF7 breast): > 100 µM
- TGI (786-0 renal): 87 µM
- TGI (U251 CNS): 40.7 µM
- TGI (OVCAR-5 ovarian): > 100 µM
- TGI (MOLT-4 leukemia): > 100 µM
- TGI (MDA-N): > 100 µM
- TGI (SK-MEL-28 melanoma): > 100 µM
- TGI (PC-3 prostate): > 100 µM
- TGI (OVCAR-3 ovarian): > 100 µM
- TGI (ACHN renal): > 100 µM
- TGI (EKVX NSCLC): > 100 µM
- TGI (SR leukemia): > 100 µM
- TGI (CCRF-CEM leukemia): > 100 µM
- TGI (COLO 205 colon): > 100 µM
- TGI (RXF 393 renal): > 100 µM
- TGI (NCI-H23 lung): > 100 µM
- TGI (SW-620 colon): > 100 µM
- TGI (BT-549 breast): > 100 µM
- TGI (RPMI-8226 leukemia): > 100 µM
- TGI (SNB-19 CNS): 62.2 µM
- TGI (UACC-62 melanoma): > 100 µM
- TGI (SF-539 CNS): > 100 µM
- TGI (HCC-2998 colon): 69.5 µM
- TGI (M14 melanoma): > 100 µM
- TGI (HL-60(TB) leukemia): > 100 µM
- TGI (HCT-116 colon): > 100 µM
- TGI (HOP-62 NSCLC): 65.2 µM
- TGI (SK-OV-3 ovarian): > 100 µM
- TGI (SF-268 CNS): > 100 µM
- TGI (SF-295 CNS): > 100 µM
- TGI (T-47D breast): > 100 µM
- TGI (UO-31 renal): > 100 µM
- TGI (MDA-MB-231 breast): > 100 µM
- TGI (A498 renal): > 100 µM
- TGI (UACC-257 melanoma): > 100 µM
- TGI (NCI-H460 lung): > 100 µM
- TGI (SN12C renal): > 100 µM
- TGI (SK-MEL-5 melanoma): 89.3 µM
- TGI (HCT-15 colon): > 100 µM
- TGI (TK-10 renal): 63.1 µM
- TGI (MDA-MB-435): > 100 µM
- TGI (LOX IMVI melanoma): > 100 µM
- TGI (KM12 colon): > 100 µM

— PubChem BioAssay (NCI)
